Values of other authors, collected in patent publication US20130287898A1, “Trivalent Chromium and Boron Fortifying Composition, a Hydration Supplement, and Process for Preparing the Same” (priority 2010, published 2013).
Each block holds one compound with its values, some of them ahead of it.

Assays:
[1] = in vivo
[2] = Expert group of vitamins & Minerals, UK - 2003
[3] = humans, 270 mg orally

absorption from the gastrointestinal tract [1]: well absorbed
excreted through urine [1]: about 90%
SMILES: [B] [Boron]

SMILES: [Cr] [Chromium]
Safe Upper level per day [2]: 10 mg

SMILES: OB(O)O [boric acid]
discomfort / signs of toxicity [3]: no obvious signs of toxicity
